The record followed here is publication PMC8344021, “Discovery of Small Molecule Bak Activator for Lung Cancer Therapy” (Theranostics, 2021).

One experiment relates to DMS114 xenografts. Put plainly: SCLC DMS114 xenografts, tumor growth. The format is in vivo, Nu/Nu nude mice. To be noted: 15mg/kg/d i.p., 2-4 weeks. As for the experimental part: (§1) Six-week-old female Nu/Nu nude mice were purchased from Envigo (Indianapolis, IN) and housed under pathogen-free conditions in microisolator cages. The animal propagation protocol was approved by the Emory Institutional Animal Care and Use Committee (IACUC) and the Emory Animal Ethics Committee. 3×10^6 lung cancer cells were injected into subcutaneous tissue in the flank region of nude mice. The tumors were allowed to grow to an average volume of 150~200 mm^3 prior to initiation of therapy as previously described, [29]. Patient-derived xenografts (PDXs, TKO-002 and TKO-005) were established as part of an IRB-approved phase II co-clinical trial of arsenic trioxide in patients with relapsed SCLC who had failed standard platinum-based chemotherapy. Tumor samples were obtained by image-guided biopsy and were directly implanted into Nu/Nu nude mice without intervening propagation in plastic culture plates. Direct serial propagation of growing tumor occurred for up to 5 generations. The animal propagation protocol was approved by the Emory IACUC and the Emory Animal Ethics Committee. Mice with SCLC and NSCLC xenografts or PDXs were treated with BKA-073 intraperitoneally (i.p.) or venetoclax orally as indicated. During treatment, tumor volume (V) was measured by caliper measurements once every two days as described previously. Mice were euthanized by CO2 inhalation at the end of treatment. […]

Experiment [1] concerns SCLC PDXs (TKO-2 and TKO-5). Put plainly: SCLC patient-derived xenografts, tumor growth. The format is in vivo, Nu/Nu nude mice. As to conditions: 15mg/kg/d i.p., 2-4 weeks. As for the experimental part: as §1
(In xenograft studies the graft and the host belong to different species.)

Experiment [2] relates to Cyt c release in A549 cells. Nature of the experiment: Cyt c release from mitochondria in cells (subcellular fractionation, Western blot). The format is cell-based, human. As to conditions: 24h. The protocol: To further test whether Bak is required for BKA-073 induction of Cyt c release, A549 parental, Bak^-/-, Bax^-/- and DKO cells were treated with BKA-073 (1 μM) for 24h, followed by analysis of Cyt c release from mitochondria. […] To further test whether BKA-073 directly induces Cyt c release from isolated mitochondria in a Bak- but not Bax-dependent fashion, purified mitochondria were isolated from A549 parental, Bak^-/-, Bax^-/- and DKO cells. The isolated mitochondria were treated with BKA-073 (1 μM) for 30 min at 30 °C. After centrifugation at 13000 g for 5 min, Cyt c in the supernatant (i.e., Cyt c release) was analyzed by Western blot. […]
Bak proteins was eluted with buffer B (20 mM Tris, pH 8.0, 120 mM NaCl, 300 mM imidazole, 10% glycerol with protease inhibitor). The elution peak of interest was checked by SDS -PAGE electrophoresis. The purified mouse Bak protein was dialyzed with buffer A . […]
Subcellular fractionation
Cells (2 ×107) were washed with cold 1× PBS and resuspended in isotonic mitochondrial buffer (210 mM mannitol, 70 mM sucrose, 1 mM EGTA, 10 mM Hepes, pH 7.5) containing 10% protease inhibitor mixture set I, homogenized with a polytron homogenizer, and then centrifuged at 1000 × g for 5 min to remove the nuclei and unbroken cells. The supernatant was centrifuged at 13,000 × g for 10 min to pellet mitochondria. […] Cyt c was analyzed
Background: Immunoblotting shows a protein as a band on a membrane.

“Also recorded” adds a separate entry of the source.

Turning to `COc1ccc2nc3ccccc3c(NCCNCC(C)O)c2c1` (stereo not shown) [BKA-073], the tumor growth entry (in the experiment with DMS114 xenografts; in experiment [1]) was “potently suppressed tumor growth” in each case. For the same compound, the Cyt c release entry is on record as “Cyt c release was observed” in experiment [2] (A549 Bax-/- cells, 1 μM) and “promoted Cyt c release from mitochondria; also recorded: Cyt c release was observed” in experiment [2] (A549 parental cells).
